Test [1] has as its system PDIA3-HA protein-protein interaction. Format: cell-based, canine.
The subject of test [2] is PR8 IAV HA transport to the plasma membrane. The format is cell-based. Conditions: NTZ 5 μg/ml after adsorption, A549 cells, PR8 5 PFU/cell, 6 h p.i.
Another test addresses T1, recombinant human PDIA3 (Homo sapiens, UniProt P30101).
T1 construct: full-length recombinant human PDIA3 (rhPDIA3, Abcam); purchased Abcam
T1 sequence (P30101 25-505): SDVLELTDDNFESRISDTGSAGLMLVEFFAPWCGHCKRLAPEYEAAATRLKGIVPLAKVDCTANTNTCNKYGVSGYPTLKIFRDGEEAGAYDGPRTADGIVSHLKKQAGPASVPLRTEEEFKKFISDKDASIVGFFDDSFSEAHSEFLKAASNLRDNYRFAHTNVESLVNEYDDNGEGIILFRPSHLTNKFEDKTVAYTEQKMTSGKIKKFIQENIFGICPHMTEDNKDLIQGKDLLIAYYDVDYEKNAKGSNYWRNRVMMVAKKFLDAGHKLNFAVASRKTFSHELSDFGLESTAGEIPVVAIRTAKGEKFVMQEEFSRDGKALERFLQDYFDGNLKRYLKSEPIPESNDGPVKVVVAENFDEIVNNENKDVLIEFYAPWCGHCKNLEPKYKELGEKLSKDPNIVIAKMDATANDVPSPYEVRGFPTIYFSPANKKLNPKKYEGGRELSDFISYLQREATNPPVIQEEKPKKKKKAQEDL
Description: Disulfide reductase activity assay with Di-E-GSSG substrate. The format is biochemical. The protocol: PDIA3 activity was determined by enzyme-dependent disulfide reduction assay. The disulfide reductase activity was tested in vitro using dieosin glutathione disulfide (Di-E-GSSG) as substrate. Recombinant human PDIA3 (rhPDIA3) (2 nM), pre-incubated with different concentrations of TIZ or control diluent (DMSO) for 10 min. at room temperature, was added to Di-E-GSSG (150 nM) in the presence of 5 μM DTT (arrow). PDIA3 reductase activity cleaves the S—S bond of Di-E-GSSG resulting in the release of fluorescent 2-eosin-GSH (EGSH). The increase in fluorescence was monitored at λ=545 nm with excitation at λ=525 nm, and expressed as relative fluorescence units (RFU).
FIG. 4A-B show effect of TIZ on PDIA3 and PDIA1 disulfide reductase activity. Effect of TIZ (5 μg/ml) on PDIA3 and PDIA1 (PDI) activities were measured by Di-E-GSSG assay using the same concentration (20 nM) of PDIA3 or PDIA1.
Disulfide reductase (DR) activity of PDIA3 or protein disulfide isomerase (PDI) was monitored by sensitive fluorescent assay using dieosin glutathione disulfide (Di-E-GSSG) (Cayman Chemical) as a substrate. DR activity assay was performed in a reaction buffer (0.1 M potassium phosphate, pH 7.0; 2 mM EDTA) by adding 2 or 20 nM of full-length recombinant human PDIA3 (rhPDIA3, Abcam) or PDI (rhPDIA1, R&D Systems) to different concentrations of Di-E-GSSG in the presence of 5 μM DTT. The reductase activity of disulfide isomerases cleaves the S—S bond of Di-E-GSSG resulting in the release of fluorescent 2-eosin-GSH (EGSH). To test the effect of TIZ on PDIA3 and PDI reductase activity, recombinant human PDIA3 or PDIA1 were previously incubated for 10 min at room temperature with different concentrations of TIZ or control diluent (DMSO) in the reaction buffer, unless differently specified. The increase in fluorescence was monitored at λ=545 nm with excitation at λ=525 nm at 25° C. with continuous stirring, and expressed as relative fluorescence units (RFU).
Thiazolides inhibit PDIA3 disulfide isomerase activity. To investigate whether thiazolides may directly affect PDIA3 disulfide-isomerase activity, we performed a fluorescence-based reductase in vitro assay using purified full-length recombinant human PDIA3 and oxidized glutathione coupled to dieosin (Di-E-GSSG) as a substrate. NTZ's circulating active metabolite, TIZ, was utilized for these studies.
Recombinant human PDIA3 (rhPDIA3) (2 nM) was pre-incubated with different concentrations of TIZ or control diluent (DMSO) for 10 min. at room temperature. […] PDIA3 reductase activity cleaves the S—S bond of Di-E-GSSG resulting in the release of fluorescent 2-eosin-GSH (EGSH), that is measured in function of time by fluorimetry, as described in Materials and Methods. […]

The values below come from patent publication US11173149B2, “Inhibition of protein disulfide-isomerase A3” (Romark Laboratories L.C., priority 2017, dated 2021).

`CC(=O)Oc1ccccc1C(=O)Nc1ncc([N+](=O)[O-])s1` [NTZ, nitazoxanide]: in test [1], the “HA-PDIA3 interaction detected by PLA” value is on record as “PDIA3 strongly interacts with HA forming large spots”. Also, the “plasma membrane-incorporated HA (HA transport to the plasma membrane)” value in test [2] is “inhibits PR8 IAV HA transport to the plasma membrane”. In addition, the “PDIA3 disulfide-isomerase activity in an in vitro assay (conclusion statement)” value at recombinant human PDIA3 is “directly inhibits PDIA3 disulfide-isomerase activity”.

In the case of `O=C(Nc1ncc([N+](=O)[O-])s1)c1ccccc1O` [TIZ, tizoxanide], the “effect on PDIA3 versus human PDIA1 reductase activity” value at recombinant human PDIA3 (TIZ 5 μg/ml, PDIA3 or PDIA1 20 nM, preliminary experiment) is listed as “preferentially inhibits PDIA3 reductase activity”. Moreover, at recombinant human PDIA3 (rhPDIA3 2 nM, Di-E-GSSG 150 nM, 5 μM DTT), the “lowest TIZ concentration tested at which inhibitory activity was observed” value turned out to be 1 µg/mL. Besides, the “PDIA3 disulfide reductase activity (time-course of EGSH fluorescence)” value on recombinant human PDIA3 (rhPDIA3 2 nM, pre-incubated 10 min with different TIZ concentrations, Di-E-GSSG 150 nM, 5 μM DTT) was “inhibits PDIA3 activity in a dose-dependent manner”.
